Results as given in patent publication US11168073B2, “3,3-difluoroallylamines or salts thereof and pharmaceutical compositions comprising the same” (YUHAN CORPORATION, priority 2018, dated 2021).
Where a name gives a salt, the structure may show the parent alone.

Columns and labels:
Type in all cases: biochemical
[1] = target: T1, recombinant human MAO-A (monoamine oxidase-A) (Homo sapiens, UniProt P21397); test: Activity evaluation on recombinant human MAO-A (Amplex Red/HRP-coupled assay, 0.5 mM tyramine substrate); conditions: 0.5 mM tyramine, read-out: Inhibitory Activity (IC50, nM) MAO-A
T1 construct: purchased Sigma-Aldrich
T1 sequence (P21397 1-527): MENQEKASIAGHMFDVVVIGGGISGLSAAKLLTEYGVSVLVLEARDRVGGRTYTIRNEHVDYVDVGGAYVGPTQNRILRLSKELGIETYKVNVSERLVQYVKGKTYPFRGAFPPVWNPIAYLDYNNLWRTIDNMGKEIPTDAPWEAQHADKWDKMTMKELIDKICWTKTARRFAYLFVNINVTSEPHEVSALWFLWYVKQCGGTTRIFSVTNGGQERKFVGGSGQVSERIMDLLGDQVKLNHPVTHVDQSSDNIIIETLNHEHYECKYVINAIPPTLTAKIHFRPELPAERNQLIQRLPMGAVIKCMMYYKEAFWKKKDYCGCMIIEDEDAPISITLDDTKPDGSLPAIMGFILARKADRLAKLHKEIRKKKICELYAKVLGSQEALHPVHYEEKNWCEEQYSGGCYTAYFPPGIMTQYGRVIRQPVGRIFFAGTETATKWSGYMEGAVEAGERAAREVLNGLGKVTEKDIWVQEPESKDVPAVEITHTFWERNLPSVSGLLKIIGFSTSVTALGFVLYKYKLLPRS
In short: (§1)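 Using an HRP-coupled Amplex Red readout (544/590 nm, kinetic over 1–2 h), IC50 values were fitted by 4-parameter logistic model to percent decrease in signal rate against DMSO control. Compounds (1:3 dilutions, 8 points, <1% DMSO) sat 30 min at 37 °C with enzyme in pH 7.4 phosphate buffer before substrate, 200 uM Amplex Red and HRP were added.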

[2] = target: T2, recombinant human DAO (diamine oxidase) (Homo sapiens, UniProt P19801); test: Activity evaluation on recombinant human DAO (Amplex Red/HRP-coupled assay, 1 mM putrescine substrate); conditions: 1 mM putrescine, read-out: Inhibitory Activity (IC50, nM) DAO
T2 construct: purchased R&D systems
T2 sequence (P19801 20-751): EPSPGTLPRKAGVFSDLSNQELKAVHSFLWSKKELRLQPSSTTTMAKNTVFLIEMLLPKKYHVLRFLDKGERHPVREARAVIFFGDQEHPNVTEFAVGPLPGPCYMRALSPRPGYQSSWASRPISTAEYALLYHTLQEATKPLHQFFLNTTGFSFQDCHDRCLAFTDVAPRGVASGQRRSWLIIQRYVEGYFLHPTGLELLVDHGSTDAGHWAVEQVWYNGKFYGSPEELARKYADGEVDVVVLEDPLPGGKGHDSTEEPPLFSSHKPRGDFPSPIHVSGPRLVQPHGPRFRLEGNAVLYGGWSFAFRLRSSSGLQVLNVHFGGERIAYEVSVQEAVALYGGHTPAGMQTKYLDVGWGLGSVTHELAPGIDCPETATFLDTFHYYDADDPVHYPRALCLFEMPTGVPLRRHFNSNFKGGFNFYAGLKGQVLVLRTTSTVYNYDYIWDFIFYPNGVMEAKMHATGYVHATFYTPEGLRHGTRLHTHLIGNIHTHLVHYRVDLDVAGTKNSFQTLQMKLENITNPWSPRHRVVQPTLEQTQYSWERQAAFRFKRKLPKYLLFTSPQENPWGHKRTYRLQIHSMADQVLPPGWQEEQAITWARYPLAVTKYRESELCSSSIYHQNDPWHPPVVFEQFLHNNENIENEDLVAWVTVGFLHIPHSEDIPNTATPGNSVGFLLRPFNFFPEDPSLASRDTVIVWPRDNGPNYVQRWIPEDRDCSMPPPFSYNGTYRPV
In short: as §1

[3] = target: T3, recombinant human MAO-B (monoamine oxidase-B) (Homo sapiens, UniProt P27338); test: Activity evaluation on recombinant human MAO-B (Amplex Red/HRP-coupled assay, 1 mM benzylamine substrate); conditions: 1 mM benzylamine, read-out: Inhibitory Activity (IC50, nM) MAO-B
T3 construct: purchased Sigma-Aldrich
T3 sequence (P27338 1-520): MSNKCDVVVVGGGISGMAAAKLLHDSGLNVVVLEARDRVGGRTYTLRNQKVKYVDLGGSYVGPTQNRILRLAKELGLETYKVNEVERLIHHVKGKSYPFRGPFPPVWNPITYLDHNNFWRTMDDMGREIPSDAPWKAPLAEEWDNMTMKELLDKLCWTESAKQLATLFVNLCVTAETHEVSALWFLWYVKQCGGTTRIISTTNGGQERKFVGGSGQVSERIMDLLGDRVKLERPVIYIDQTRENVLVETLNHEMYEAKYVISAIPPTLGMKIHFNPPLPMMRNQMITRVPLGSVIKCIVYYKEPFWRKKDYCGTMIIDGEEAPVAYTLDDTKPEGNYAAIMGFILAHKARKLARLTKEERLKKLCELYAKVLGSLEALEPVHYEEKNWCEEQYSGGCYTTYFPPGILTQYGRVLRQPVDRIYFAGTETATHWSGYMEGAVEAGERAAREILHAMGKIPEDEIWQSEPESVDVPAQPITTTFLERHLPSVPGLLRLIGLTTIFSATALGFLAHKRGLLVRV
In short: as §1

[4] = target: T4, recombinant human VAP-1 (Homo sapiens, UniProt Q16853); test: Activity evaluation on recombinant human VAP-1 (Amplex Red/HRP-coupled hydrogen peroxide assay, benzylamine substrate); conditions: recombinant human VAP-1; 30 min preincubation at 37° C.; 1 mM benzylamine; read-out: Inhibitory Activity (IC50, nM) human VAP-1
T4 construct: purchased R&D systems
T4 sequence (Q16853 1-763): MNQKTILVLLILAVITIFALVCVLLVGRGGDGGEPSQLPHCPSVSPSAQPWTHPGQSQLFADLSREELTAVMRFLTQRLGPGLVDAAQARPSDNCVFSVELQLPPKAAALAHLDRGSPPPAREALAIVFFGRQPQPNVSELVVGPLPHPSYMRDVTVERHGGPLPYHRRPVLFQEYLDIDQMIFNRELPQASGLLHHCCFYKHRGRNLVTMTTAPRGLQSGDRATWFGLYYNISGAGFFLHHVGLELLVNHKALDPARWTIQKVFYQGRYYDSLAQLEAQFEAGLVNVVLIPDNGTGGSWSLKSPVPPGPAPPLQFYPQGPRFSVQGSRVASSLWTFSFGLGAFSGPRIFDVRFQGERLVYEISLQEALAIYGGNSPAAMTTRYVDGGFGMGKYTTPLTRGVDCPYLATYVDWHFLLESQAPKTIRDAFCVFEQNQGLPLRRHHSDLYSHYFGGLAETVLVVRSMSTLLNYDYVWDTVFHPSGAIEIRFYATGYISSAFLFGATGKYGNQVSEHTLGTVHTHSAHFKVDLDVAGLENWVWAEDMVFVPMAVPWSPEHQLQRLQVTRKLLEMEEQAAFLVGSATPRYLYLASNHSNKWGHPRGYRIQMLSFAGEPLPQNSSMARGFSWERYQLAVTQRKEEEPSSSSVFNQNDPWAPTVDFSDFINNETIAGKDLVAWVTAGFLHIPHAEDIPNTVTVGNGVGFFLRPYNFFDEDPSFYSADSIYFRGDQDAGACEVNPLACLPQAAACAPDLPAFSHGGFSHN
In short: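 Hydrogen peroxide from benzylamine (1 mM) oxidation by human recombinant VAP-1 detected via HRP-coupled Amplex Red (200 uM) fluorescence, kinetic over 1–2 h. Enzyme and compound preincubated 30 min at 37 °C, pH 7.4 phosphate; 8-point dose response, signal-rate decrease versus DMSO control fitted to four-parameter logistic for IC50.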

## Cc1cc(-c2ccc(N3CCNCC3)cc2)sc1Cn1cnn(CC(CN)=C(F)F)c1=O [Example 155, 2-[2-(aminomethyl)-3,3-difluoro-allyl]-4-[[3-methyl-5-(4-piperazin-1-ylphenyl)-2-thienyl]methyl]-1,2,4-triazol-3-one Ditrifluoroacetate]
[1]
  IC50: > 100000 nM
[2]
  IC50: 50000 nM
[3]
  IC50: > 100000 nM
[4]
  IC50: 56 nM

## Cc1cc(-c2ccc(C(F)(F)F)nc2)sc1Cn1cnn(CC(CN)=C(F)F)c1=O [Example 156, 2-[2-(aminomethyl)-3,3-difluoro-allyl]-4-[[3-methyl-5-[6-(trifluoromethyl)-3-pyridyl]-2-thienyl]methyl]-1,2,4-triazol-3-one Trifluoroacetate]
[1]
  IC50: > 100000 nM
[2]
  IC50: 9100 nM
[3]
  IC50: 17000 nM
[4]
  IC50: 3.2 nM

## Cc1cc(-c2ccc(N(C)C)nc2)sc1Cn1cnn(CC(CN)=C(F)F)c1=O [Example 157, 2-[2-(aminomethyl)-3,3-difluoro-allyl]-4-[[5-[6-(dimethylamino)-3-pyridyl]-3-methyl-2-thienyl]methyl]-1,2,4-triazol-3-one Trifluoroacetate]
[1]
  IC50: > 100000 nM
[2]
  IC50: > 100000 nM
[3]
  IC50: > 100000 nM
[4]
  IC50: 2.3 nM

## Cc1cc(-c2ccc3c(c2)OCO3)sc1Cn1cnn(CC(CN)=C(F)F)c1=O [Example 158, 2-[2-(aminomethyl)-3,3-difluoro-allyl]-4-[[5-(1,3-benzodioxol-5-yl)-3-methyl-2-thienyl]methyl]-1,2,4-triazol-3-one Trifluoroacetate]
[1]
  IC50: > 100000 nM
[2]
  IC50: > 100000 nM
[3]
  IC50: 3800 nM
[4]
  IC50: 7 nM

## CCn1cc(-c2cc(C)c(Cn3cnn(CC(CN)=C(F)F)c3=O)s2)cn1 [Example 159, 2-[2-(aminomethyl)-3,3-difluoro-allyl]-4-[[5-(1-ethylpyrazol-4-yl)-3-methyl-2-thienyl]methyl]-1,2,4-triazol-3-one Trifluoroacetate]
[1]
  IC50: > 100000 nM
[2]
  IC50: 52000 nM
[3]
  IC50: > 100000 nM
[4]
  IC50: 5.2 nM

## Cn1cc(C#Cc2cccc(-n3cnn(CC(CN)=C(F)F)c3=O)n2)cn1 [Example 160, 2-[2-(aminomethyl)-3,3-difluoro-allyl]-4-[6-[2-(1-methylpyrazol-4-yl)ethynyl]-2-pyridyl]-1,2,4-triazol-3-one trifluoroacetate]
[1]
  IC50: > 100000 nM
[2]
  IC50: 5090 nM
[3]
  IC50: 15600 nM
[4]
  IC50: 1.5 nM

## NCC(Cn1ncn(Cc2ccc(/C=C/c3cnc4c(c3)NC(=O)CO4)s2)c1=O)=C(F)F [Example 161, 7-[(E)-2-[5-[[1-[2-(aminomethyl)-3,3-difluoro-allyl]-5-oxo-1,2,4-triazol-4-yl]methyl]-2-thienyl]vinyl]-1H-pyrido[2,3-b][1,4]oxazin-2-one Trifluoroacetate]
[1]
  IC50: > 100000 nM
[2]
  IC50: 54000 nM
[3]
  IC50: > 100000 nM
[4]
  IC50: 0.2 nM

## NCC(Cn1ncn(Cc2ccc(C#Cc3ccc(N4CCOCC4)nc3)s2)c1=O)=C(F)F [Example 163, 2-[2-(aminomethyl)-3,3-difluoro-allyl]-4-[[5-[2-(6-morpholino-3-pyridyl)ethynyl]-2-thienyl]methyl]-1,2,4-triazol-3-one Trifluoroacetate]
[1]
  IC50: > 100000 nM
[2]
  IC50: 8400 nM
[3]
  IC50: 31000 nM
[4]
  IC50: 0.4 nM

## NCC(Cn1ncn(Cc2ccc(C#Cc3ccc4c(c3)NCCO4)s2)c1=O)=C(F)F [Example 164, 2-[2-(aminomethyl)-3,3-difluoro-allyl]-4-[[5-[2-(3,4-dihydro-2H-1,4-benzoxazin-6-yl)ethynyl]-2-thienyl]methyl]-1,2,4-triazol-3-one Ditrifluoroacetate]
[1]
  IC50: 4000 nM
[2]
  IC50: > 10000 nM
[3]
  IC50: 34000 nM
[4]
  IC50: 2.5 nM

## NCC(Cn1ncn(Cc2ccc(C#Cc3ccc4c(c3)CCC(=O)N4)s2)c1=O)=C(F)F [Example 165, 6-[2-[5-[[1-[2-(aminomethyl)-3,3-difluoro-allyl]-5-oxo-1,2,4-triazol-4-yl]methyl]-2-thienyl]ethynyl]-3,4-dihydro-1H-quinolin-2-one Trifluoroacetate]
[1]
  IC50: > 100000 nM
[2]
  IC50: > 10000 nM
[3]
  IC50: 5900 nM
[4]
  IC50: 0.5 nM

## NCC(Cn1ncn(Cc2ccc(C#Cc3cnc4c(c3)NCCO4)s2)c1=O)=C(F)F [Example 166, 2-[2-(aminomethyl)-3,3-difluoro-allyl]-4-[[5-[2-(2,3-dihydro-1H-pyrido[2,3-b][1,4]oxazin-7-yl)ethynyl]-2-thienyl]methyl]-1,2,4-triazol-3-one Ditrifluoroacetate]
[1]
  IC50: > 10000 nM
[2]
  IC50: > 10000 nM
[3]
  IC50: > 10000 nM
[4]
  IC50: 0.9 nM

## NCC(Cn1ncn(Cc2ccc(C#Cc3cnc4c(c3)OCCN4)s2)c1=O)=C(F)F [Example 167, 2-[2-(aminomethyl)-3,3-difluoro-allyl]-4-[[5-[2-(3,4-dihydro-2H-pyrido[3,2-b][1,4]oxazin-7-yl)ethynyl]-2-thienyl]methyl]-1,2,4-triazol-3-one Ditrifluoroacetate]
[1]
  IC50: > 100000 nM
[2]
  IC50: > 10000 nM
[3]
  IC50: 41000 nM
[4]
  IC50: 2.1 nM
